Test results published in publication PMC12528448, “Resistance to CDK7 inhibitors directed by acquired mutation of a conserved residue in cancer cells” (The EMBO Journal, 2025).
“And” between values parts separate entries of the source, which are not always exact repeats. Equal entries are not always repeated.

Experiments:
LNCaP cells = test: Growth assay (SRB), LNCaP; type: cell-based, human
Protocol: (§1) To determine the IC50 of drug treatments on growth, cells were seeded in 96-well culture plates. Two days after seeding, the cells were treated with increasing concentrations of drugs and incubated for 4 days. Cell number was determined using the SRB assay (Skehan et al, [1990]), and IC50 values were calculated using non-linear regression curve fitting in GraphPad Prism v10. For all other growth experiments, cells were seeded into 96-well plates, and appropriate drugs were added 2 days after seeding. Cells were then incubated in an IncuCyte Zoom live-cell imager, with cell confluency measured every 6 h. Cell doubling times were determined by non-linear curve fitting (exponential growth equation) in GraphPad Prism v10.

MCF7 cells = test: Growth assay (SRB), MCF7; type: cell-based, human; settings: for % Growth: biological reps
Summary of the method: (§2)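 SRB: dosing at day 2 post-seed, rising concentrations, 4 d incubation, IC50 via non-linear fit. IncuCyte: drug at day 2, confluency read q6h, doubling time from exponential curve fit.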

22Rv1-SamR cells = test: Growth assay (SRB), Samuraciclib-resistant 22Rv1; type: cell-based, human; settings: for % Growth: 22Rv1 SamR, 4 days, biological reps
Summary of the method: as §2

CDK7-WT = target: T1, CDK7-WT (Homo sapiens, UniProt P50613); test: NanoBRET Target Engagement assay, K-10 tracer displacement in HEK293 cells; type: binding; settings: for % Occupacy: CDK7 WT, replicates N1-N3
T1 construct: expressed in transfected cells; host or cells: HEK293
Protocol: (§3) Energy transfer between the NanoLuc fusion protein and a cell-permeable fluorescent energy transfer probe facilitates quantitative determination of target engagement in live cells (Wells et al, [2020]). Assays were conducted according to this previous report, using the optimal CDK7 probe, K-10, at a concentration of 0.5 µM.
(§4) CDK4, CDK6 and CDK7 and the respective mutant sequences, obtained as synthesised DNA fragments from IDT (Leuven), were cloned by HiFi DNA assembly (New England Biolabs) into the pNLF1-N NanoLuc protein fusion vector (Promega). HEK293 cells, transiently transfected with NanoLuc-CDK fusion constructs, were used for activity determination, utilising the NanoBRET Target Engagement Intracellular Kinase Assay. A CCND1 expression construct was co-transfected with the NanoLuc-CDK4 and NanoLuc-CDK6 fusion constructs. The recommended cell-permeable energy transfer probe, K-10, was used to assess target engagement, as detailed in the manufacturer’s methods (Promega). […] The BRET ratio (mBU) was calculated as acceptor emission (590–610 nm)/donor emission (410–490 nm) × 1000. The mBU values were plotted against the energy probe concentrations to determine maximal binding (Bmax) and Kd values. BRET signal competition by CDK inhibitors was used to determine compound binding to WT and mutant CDKs. […] Inhibitor binding was determined using a fourfold dilution series. mBU values were plotted against test compound concentrations in the presence of K10 tracer. EC50 values were determined using nonlinear regression curve-fitting. Test compound occupancy (%) was calculated using the equation [1 − (x − z)/(y − z)] × 100, where x = mBU in the presence of the test compound and K-10 tracer, y = mBU with K-10 tracer and vehicle control, and z = mBU in the absence of the K-10 tracer or test compound (Wells et al, [2020]).

CDK7-D97N = target: T2, CDK7-D97N (Homo sapiens, UniProt P50613, D97N); test: as above; type: binding; settings: for % Occupacy: CDK7 D97N, replicates N1-N3
T2 construct: expressed in transfected cells; host or cells: HEK293
Protocol: as §3, §4

MCF7-CDK7-D97N cells = test: Growth assay (SRB), MCF7 CDK7-D97N knock-in; type: cell-based, human; settings: for % Growth: MCF7 CDK7 D99N, biological reps
Summary of the method: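 CRISPR-Cas9 knock-in lines were treated with increasing drug concentrations two days after seeding, then grown 4 days. Cell number by SRB staining; IC50 from non-linear regression.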

22Rv1 cells = test: Growth assay (SRB), 22Rv1; type: cell-based, human
Summary of the method: as §2

22Rv1-CDK7-D97N cells = test: Growth assay (SRB), 22Rv1 CDK7-D97N knock-in pool; type: cell-based, human; settings: for % Growth: 22Rv1 CDK7 D99N
Protocol: as §1
Alt-R^TM S.p. Cas9 nuclease V3, Alt-R CRISPR-Cas9 crRNA, TracrRNA and the donor templates were obtained from Integrated DNA Technologies. […] Cells were treated with 0.7 µM of Alt-R HDR Enhancer V2 to improve HRD efficiency. Sequences of the CRISPRs in the crRNA and the donor templates are shown in the Reagents and tools table. Donor templates were designed to include non-coding substitutions to aid genome DNA PCR for identifying knock-in events and to facilitate cloning; these substitutions are noted in the Reagents and tools table.

T1 sequence (P50613 whole entry): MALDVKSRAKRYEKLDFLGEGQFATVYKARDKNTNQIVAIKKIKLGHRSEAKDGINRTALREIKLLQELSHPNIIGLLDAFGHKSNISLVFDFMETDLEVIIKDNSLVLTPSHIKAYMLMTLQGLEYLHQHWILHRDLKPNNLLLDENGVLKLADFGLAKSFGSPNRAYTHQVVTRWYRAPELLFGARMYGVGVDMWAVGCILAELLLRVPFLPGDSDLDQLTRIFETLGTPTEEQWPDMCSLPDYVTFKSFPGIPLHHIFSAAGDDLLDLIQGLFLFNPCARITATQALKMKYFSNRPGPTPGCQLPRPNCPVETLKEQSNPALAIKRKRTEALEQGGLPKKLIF
T2 sequence (P50613 whole entry D97N): as the sequence (P50613 whole entry) above, with D97N counted along it

IC50 (MCF7 cells; 4 days, SRB): 0.89 nM
Resistance (Fold), fold increase in IC50 of 22Rv1-SamR relative to 22Rv1 (22Rv1-SamR cells; 22Rv1-SamR vs 22Rv1): 1.0 fold
EC50 (CDK7-WT; CDK7-WT, K-10 0.5 µM, HEK293): 0.029 µM
% Occupacy (CDK7-WT; Log10 Conc. (nM) 0.09): 5.29% and 2.02% and 1.09%
% Occupacy (CDK7-WT; Log10 Conc. (nM) 0.69): 14.34% and 11.55% and 9.36%
% Occupacy (CDK7-WT; Log10 Conc. (nM) 1.29): 40.53% and 32.34% and 29.30%
% Occupacy (CDK7-WT; Log10 Conc. (nM) 1.89): 74.64% and 88.34% and 86.64%
% Occupacy (CDK7-WT; Log10 Conc. (nM) 2.49): 98.27% and 99.01% and 95.02%
% Occupacy (CDK7-WT; Log10 Conc. (nM) 3.10): 99.51% and 100.88% and 97.39%
% Occupacy (CDK7-WT; Log10 Conc. (nM) 3.70): 102.75% and 104.94% and 102.49%
% Occupacy (CDK7-WT; Log10 Conc. (nM) 4.30): 86.99% and 86.89% and 86.73%
% Occupacy (CDK7-WT; Log10 Conc. (nM) -0.52): 10.37% and -0.26% and 2.09%
% Occupacy (CDK7-WT; Log10 Conc. (nM) -1.12): 9.68% and 0.78% and 5.84%
% Occupacy (CDK7-WT; Log10 Conc. (nM) -1.72): 8.54% and -2.37% and 7.63%
EC50 (CDK7-D97N; CDK7-D97N, K-10 0.5 µM, HEK293): 0.0313 µM
% Occupacy (CDK7-D97N; Log10 Conc. (nM) 0.09): 2.93% and 3.17% and -0.97%
% Occupacy (CDK7-D97N; Log10 Conc. (nM) 0.69): 10.17% and 10.16% and 4.41%
% Occupacy (CDK7-D97N; Log10 Conc. (nM) 1.29): 36.69% and 35.14% and 27.40%
% Occupacy (CDK7-D97N; Log10 Conc. (nM) 1.89): 86.86% and 82.26% and 69.03%
% Occupacy (CDK7-D97N; Log10 Conc. (nM) 2.49): 95.98% and 95.66% and 91.52%
% Occupacy (CDK7-D97N; Log10 Conc. (nM) 3.10): 98.50% and 98.01% and 96.95%
% Occupacy (CDK7-D97N; Log10 Conc. (nM) 3.70): 100.42% and 100.34% and 99.95%
% Occupacy (CDK7-D97N; Log10 Conc. (nM) 4.30): 97.72% and 96.80% and 96.75%
% Occupacy (CDK7-D97N; Log10 Conc. (nM) -0.52): -0.36% and 0.88% and 0.71%
% Occupacy (CDK7-D97N; Log10 Conc. (nM) -1.12): 3.66% and 1.72% and -0.86%
% Occupacy (CDK7-D97N; Log10 Conc. (nM) -1.72): 3.68% and 0.83% and -1.37%
Difference in EC50 values for mutant and WT CDK7 (CDK7-D97N; NanoBRET): no significant difference
IC50 (MCF7-CDK7-D97N cells; MCF7-CDK7-D97N, 4 days, SRB): 0.17 nM
Compound: CN(C)C/C=C/C(=O)Nc1ccc(C(=O)N[C@@]2(C)CCC[C@@H](Nc3ncc(Cl)c(-c4c[nH]c5ccccc45)n3)C2)nc1 [SY-1365]
% Growth (LNCaP cells; Log10 Conc. (nM) 0.09): 56.73% and 37.69%
% Growth (LNCaP cells; Log10 Conc. (nM) 1.29): 1.68% and -7.82%
% Growth (LNCaP cells; Log10 Conc. (nM) 2.49): -22.61% and -22.62%
% Growth (LNCaP cells; Log10 Conc. (nM) 3.70): -23.75%
% Growth (LNCaP cells; Log10 Conc. (nM) -0.52): 84.52% and 77.18%
% Growth (LNCaP cells; Log10 Conc. (nM) -1.12): 86.80% and 137.61%
% Growth (LNCaP cells; Log10 Conc. (nM) -1.72): 105.02%
% Growth (MCF7 cells; Log10 Conc. (nM) 3.70, 4 days): -12.18%
% Growth (MCF7 cells; Log10 Conc. (nM) -0.52, 4 days): 88.75% and 65.89% and 87.60% and 88.37%
% Growth (MCF7 cells; Log10 Conc. (nM) -1.12, 4 days): 97.02% and 94.10% and 95.64% and 94.95%
% Growth (MCF7 cells; Log10 Conc. (nM) -1.72, 4 days): 90.31% and 94.08% and 94.26%
Sensitivity in growth assays (22Rv1-SamR cells; 22Rv1-SamR): remained sensitive
% Growth (22Rv1-SamR cells; Log10 Conc. (nM) 0.09): 50.67% and 45.27%
% Growth (22Rv1-SamR cells; Log10 Conc. (nM) 0.69): 34.60% and 27.89%
% Growth (22Rv1-SamR cells; Log10 Conc. (nM) 1.29): 26.06% and 19.62%
% Growth (22Rv1-SamR cells; Log10 Conc. (nM) 1.89): -2.71% and -9.74%
% Growth (22Rv1-SamR cells; Log10 Conc. (nM) 2.49): -0.26% and -8.99%
% Growth (22Rv1-SamR cells; Log10 Conc. (nM) -0.52): 81.58% and 73.70%
% Growth (22Rv1-SamR cells; Log10 Conc. (nM) -1.12): 90.71% and 90.62%
Resistance (Fold) (MCF7-CDK7-D97N cells; MCF7-CDK7-D97N vs MCF7 WT): 0.19 fold
% Growth (MCF7-CDK7-D97N cells; Log10 Conc. (nM) 3.70, 4 days): -16.61%
% Growth (MCF7-CDK7-D97N cells; Log10 Conc. (nM) -1.12, 4 days): 78.15% and 70.71% and 82.37% and 82.39%
% Growth (MCF7-CDK7-D97N cells; Log10 Conc. (nM) -1.72, 4 days): 83.93% and 103.71% and 98.90%
% Growth (22Rv1 cells; 22Rv1, Log10 Conc. (nM) 0.09): 53.71% and 72.88%
% Growth (22Rv1 cells; 22Rv1, Log10 Conc. (nM) 0.69): 19.90% and 19.70%
% Growth (22Rv1 cells; 22Rv1, Log10 Conc. (nM) 1.29): 16.91% and 19.74%
% Growth (22Rv1 cells; 22Rv1, Log10 Conc. (nM) 1.89): -7.92% and -2.43%
% Growth (22Rv1 cells; 22Rv1, Log10 Conc. (nM) 2.49): -5.73% and -3.13%
% Growth (22Rv1 cells; 22Rv1, Log10 Conc. (nM) 3.10): 1.12%
% Growth (22Rv1 cells; 22Rv1, Log10 Conc. (nM) 3.70): -11.26%
% Growth (22Rv1 cells; 22Rv1, Log10 Conc. (nM) -0.52): 94.30% and 92.75%
% Growth (22Rv1 cells; 22Rv1, Log10 Conc. (nM) -1.12): 97.77% and 104.48%
% Growth (22Rv1 cells; 22Rv1, Log10 Conc. (nM) -1.72): 103.08%
% Growth (22Rv1 cells; 22Rv1, Log10 Conc. (nM) 0.09, 4 days, biological reps): 64.96% and 59.63%
% Growth (22Rv1 cells; 22Rv1, Log10 Conc. (nM) 0.69, 4 days, biological reps): 28.69% and 25.19%
% Growth (22Rv1 cells; 22Rv1, Log10 Conc. (nM) 1.29, 4 days, biological reps): 21.21% and 16.89%
% Growth (22Rv1 cells; 22Rv1, Log10 Conc. (nM) 1.89, 4 days, biological reps): 0.26% and -4.14%
% Growth (22Rv1 cells; 22Rv1, Log10 Conc. (nM) 2.49, 4 days, biological reps): 1.87% and -4.53%
% Growth (22Rv1 cells; 22Rv1, Log10 Conc. (nM) 3.10, 4 days, biological reps): -0.83% and -4.41%
% Growth (22Rv1 cells; 22Rv1, Log10 Conc. (nM) 3.70, 4 days, biological reps): 0.68% and -4.68%
% Growth (22Rv1 cells; 22Rv1, Log10 Conc. (nM) -0.52, 4 days, biological reps): 89.73% and 90.72%
% Growth (22Rv1 cells; 22Rv1, Log10 Conc. (nM) -1.12, 4 days, biological reps): 93.97% and 90.45%
Sensitivity in growth assays (22Rv1-CDK7-D97N cells; 22Rv1-CDK7-D97N vs parental): remaining sensitive
% Growth (22Rv1-CDK7-D97N cells; Log10 Conc. (nM) 0.09): 48.76% and 39.48%
% Growth (22Rv1-CDK7-D97N cells; Log10 Conc. (nM) 0.69): 32.85% and 26.42%
% Growth (22Rv1-CDK7-D97N cells; Log10 Conc. (nM) 1.29): 16.40% and 13.77%
% Growth (22Rv1-CDK7-D97N cells; Log10 Conc. (nM) 1.89): -9.18% and -1.73%
% Growth (22Rv1-CDK7-D97N cells; Log10 Conc. (nM) 3.70): -12.72%
% Growth (22Rv1-CDK7-D97N cells; Log10 Conc. (nM) -0.52): 87.25% and 62.47%
% Growth (22Rv1-CDK7-D97N cells; Log10 Conc. (nM) -1.12): 95.17% and 93.47%
% Growth (22Rv1-CDK7-D97N cells; Log10 Conc. (nM) -1.72): 98.87%
